Test results: patent US12172919B2, “Deconstruction of oilsand materials using ionic liquids” (ADJACENCY LABS CORP., priority 2017, dated 2024)
Read-outs that look alike come from different tables or passages of the source.

Tests used:
[1] = In-situ extraction: IL injection through column packed with oil sand; conditions: 100 g oil sand, 0.5 mL/min for 26 h, 24 h soak, 2 h re-injection
Procedure: 100 g dry oil sand was packed into a steel tube (1.5×30 cm). The packed steel tube then was mounted into apparatus to allow injection of desired fluid through the oil sand while collecting the effluent for subsequent analysis (FIG. 61). The injection of [C8NH3][Oleate] was continuous for 26 h at an injection rate of 0.5 mL/min, and the injection pressure was stabilized in the range 1940-2000 kPa. The breakthrough time was around 35 min. This indicates the pore volume was around 17.5 ml. The total amount of [C8NH3][Oleate] injected was around 783 ml. […] At the first 2.5 h of injection, the bitumen recovery is significant, and the fluid recovered is black. However, with continuing injection the black intensity decreases gradually till the effluent is clear [C8NH3][Oleate] after 26 h.
After 26 h of injection, the pump was stopped and the [C8NH3][Oleate]/Oil sand system in the steel column was left to soak for 24 h. Then injection was re-started with the same injection rate (0.5 mL/min) and the pressure stabilized at around 1850 kPa (similar level before soaking). The blackness of the fluid samples recovered during 2 h of injection post-soaking is not as intense as that during the same time for [C8NH3][Oleate] injection into the fresh oil sand. […]
After terminating the experiment, the bitumen still in the oil sand was quantified using Dean Stark.

[2] = Thermogravimetric analysis (TGA); format: physicochemical

## octylammonium oleate [[C8NH3][Oleate]]
[1]
  bitumen remaining in oil sand by Dean Stark extraction, of the initial amount of bitumen: 47.34%
[2]
  thermal decomposition temperature: 129 °C
solvent: Acetonitrile
  [C8NH3][Oleate] solubility: − (Insoluble (0.2 g in 3 mL solvent))
solvent: Chloroform
  [C8NH3][Oleate] solubility: + (Soluble (0.2 g in 0.5 mL solvent))
solvent: DI water
  [C8NH3][Oleate] solubility: − (Insoluble (0.2 g in 3 mL solvent))
solvent: Dichlorobenzene
  [C8NH3][Oleate] solubility: + (Soluble (0.2 g in 0.5 mL solvent))
solvent: Dichloromethane
  [C8NH3][Oleate] solubility: + (Soluble (0.2 g in 0.5 mL solvent))
solvent: Dimethyl sulfoxide
  [C8NH3][Oleate] solubility: − (Insoluble (0.2 g in 3 mL solvent))
solvent: Hexane
  [C8NH3][Oleate] solubility: + (Soluble (0.2 g in 0.5 mL solvent))
solvent: Methanol
  [C8NH3][Oleate] solubility: + (Soluble (0.2 g in 0.5 mL solvent))
solvent: Xylene
  [C8NH3][Oleate] solubility: + (Soluble (0.2 g in 0.5 mL solvent))
